Assay results: patent publication US20110306503A1, “TEMPLATE-DEPENDENT NUCLEIC ACID POLYMERIZATION USING OLIGONUCLEOTIDE TRIPHOSPHATES BUILDING BLOCKS” (Yeda Research And Development Co. Ltd., priority 1999, published 2011)

Target: T1, Taq DNA polymerase (Thermus aquaticus, UniProt P19821)
T1 construct: a truncated version of Taq DNA polymerase (543 amino acids of the C-terminus part); made in house; host or cells: E. coli JM109 (pTTQ vector)
Test: Labeled-primer extension assay
Assay type: biochemical
Conditions: for template-dependent incorporation: template T83, ApG3p and TpC3p together, FIG. 8 lane 2; for incorporation of complementary versus non-complementary dinucleotide: dinucleotide alone, FIG. 7 lanes 6 and 7
Experimental: The oligonucleotides that were used for this assay are detailed in Table 4 before. The reactions of labeled-primer extension included: polymerization buffer (40 mM Tricine-KOH, pH 8.0; 16 mM KCl; 5 mM MgCl2 and 4 μg BSA), 1 pmol template, 0.2 pmol of the p201 primer (labeled at its 5′ with P^32-γ-ATP using T4 polynucleotide kinase), 1 μM of the indicated dNTP's and 50 μM of the indicated di- or trinucleotide triphosphates in a total volume of 20 μl. The reactions were incubated for 5 minutes at 45° C., then 5 units of Taq DNA polymerase (see Example 3 for details) were added, followed by 20 minutes at 72° C. The reactions were terminated with 15 μl of stop solution (95% formamide, 20 mM EDTA and 0.05% bromophenol blue). Three μl were then separated on Urea-PAGE, and the radiolabeled DNA-bands were detected by phosphoimaging.

T1 sequence (P19821 290-832 limits assumed): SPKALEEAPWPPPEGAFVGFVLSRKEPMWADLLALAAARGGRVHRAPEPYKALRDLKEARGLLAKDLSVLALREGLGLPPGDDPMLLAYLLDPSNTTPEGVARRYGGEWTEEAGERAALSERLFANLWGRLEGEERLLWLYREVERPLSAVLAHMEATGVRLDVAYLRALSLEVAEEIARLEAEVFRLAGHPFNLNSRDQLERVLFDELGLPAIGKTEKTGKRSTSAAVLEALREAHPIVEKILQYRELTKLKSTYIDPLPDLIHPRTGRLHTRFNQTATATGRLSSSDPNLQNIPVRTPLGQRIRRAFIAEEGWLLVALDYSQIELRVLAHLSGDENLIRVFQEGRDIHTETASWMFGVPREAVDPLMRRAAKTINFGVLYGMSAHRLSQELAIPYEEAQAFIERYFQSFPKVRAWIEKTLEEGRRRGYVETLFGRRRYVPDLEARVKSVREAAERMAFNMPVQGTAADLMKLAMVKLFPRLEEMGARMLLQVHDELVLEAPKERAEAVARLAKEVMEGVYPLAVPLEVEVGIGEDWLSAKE

Row | Molecule | template-dependent incorporation | incorporation of complementary versus non-complementary dinucleotide (template T24) | other results
1 | Nc1nc2c(ncn2[C@H]2C[C@H](O)[C@@H](COP(=O)(O)O[C@H]3C[C@H](n4cnc5c(N)ncnc54)O[C@@H]3CO)O2)c(=O)[nH]1 [ApG3p, 2′-deoxyadenylyl(3′-5′)-2′-deoxyguanosine] | template-dependent incorporation | – | –
2 | Cc1cn([C@H]2C[C@H](OP(=O)(O)OC[C@H]3O[C@@H](n4ccc(N)nc4=O)C[C@@H]3O)[C@@H](CO)O2)c(=O)[nH]c1=O [TpC3p, thymidylyl(3′-5′)-2′-deoxycytidine] | template-dependent incorporation | – | –
3 | Nc1ccn([C@H]2C[C@H](OP(=O)(O)OC[C@H]3O[C@@H](n4cnc5c(N)ncnc54)C[C@@H]3O)[C@@H](CO)O2)c(=O)n1 [CpA3p, 2′-deoxycytidylyl(3′-5′)-2′-deoxyadenosine] | – | seems to be incorporated | template-dependent incorporation onto 3′ end of labeled primer p201 (templates T80 and T81, 50 μM dinucleotide triphosphates, FIG. 6 lanes 3-7): correct incorporation; efficiency of incorporation compared to the natural dNTP's (templates T80 and T81, FIG. 6 lanes 3-7 vs lane 2): lower efficiency
4 | Nc1ccn([C@H]2C[C@H](OP(=O)(O)OC[C@H]3O[C@@H](n4ccc(N)nc4=O)C[C@@H]3O)[C@@H](CO)O2)c(=O)n1 [CpC3p, 2′-deoxycytidylyl(3′-5′)-2′-deoxycytidine] | – | Only the complementary dinucleotide (CpA3p) seems to be incorporated | –
5 | thymidylyl-3′-5′-thymidylyl-3′-5′-thymidine (DNA TTT; DNA, phosphodiester; triphosphate form of the trinucleotide, triphosphate end not given here, further chemistry not fully specified) [TpTpT3p] | – | – | template-dependent incorporation in a mix with dCTP and dATP (template T24, FIG. 7 lanes 4 and 5): utilized
